The test system of one data set is RAW 264.7. How it is done: (§1) For cell proliferation assays, cell suspensions were prepared by trypsinization of cells from cultures prepared in accord with methods described above. Cell viability was determined by trypan blue exclusion. The cells were then seeded in flat-bottom 96-well microtiter plates at a density of 2×10^3 cells/well and were allowed to rest for 48 hours in order to adhere. Non-adherent dead cells were removed by aspiration. Cells were then grown in media without phenol red. Some of the media contained supplements as indicated above. […] The cells were then grown for six days. Media was changed on the samples every 48 hours. On day 6, cells were pulsed with 1 μCi[…]-thymidine for the last 6 hours of incubation before harvesting onto glass filter using a HPD cell harvester (Cambridge Technology, Watertown, Mass.) and counted on a KLB scintillation counter.
Effects of αAED at doses of 50 ηM and 100 ηM doses on murine macrophage myeloma cells (RAW 264.7, obtained from the American Type Culture Collection) was studied.

For data set [1], the system named is ZR-75-1 cells. The conditions noted are these: trypan blue exclusion. As to the method: (§2) Cells were first seeded at initial density of 1×10^5 cells per ml in quadruplicates in 24 multi-well flat bottom plates (Costar). Cells were then allowed to adhere and grow in phenol red-free […] media supplemented with 10% heat-inactivated fetal calf serum (FCS), 200 μM L-glutamine, 10 mM HEPES, 2.5 U/ml penicillin and 2.5 μg/ml streptomycin in 5% CO2 at 37° C. After 48 hours, four wells were sacrificed and counted to determine plating efficiency. In the remaining wells, medium was removed by aspiration and cells in each well were exposed to the media containing the specified steroid. The controls containing only medium or medium with vehicle were also prepared. In all samples, medium was changed every 48 hours. At the pre-established time-point. Cells were removed by trypsinization and washed. Cell number and viability were determined by trypan blue exclusion using a hemocytometer. Parallel cultures were also run to determine cell proliferation.

Data set [2] relates to ZR-75-1 cells. As to the kind of experiment: cells. The following applies: for cell proliferation (3H-thymidine): six day period. How it is done: The ZR-75-1 cell line (passage 89) was obtained from the American Type Culture Collection (Rockville, Md.). The cells were cultured in RPMI-1640 medium containing 10% heat-inactivated fetal calf serum, 200 μM L-glutamine, […] HEPES, 1.5 U/ml penicillin, and 1.5 μg/ml streptomycin in 5% CO2 at 37° C. The cells were passaged twice weekly.
as §2, §1
ZR-75-1 cells (2×10^3) were treated as described above over a six day period with differing concentrations of αAED or with vehicle-only cultures. The medium was changed every 48 hours. Cells were pulsed with ^3H-thymidine for the last six hours of incubation.

The next data set deals with P388D1 cells. The following applies: RU486 at 0.5 μM and 1.0 μM. As to the method: as §1

Like-named read-outs stand apart in the source and are kept apart here. A value given as a limit tells only on which side of the number the result lay.

As for `C[C@]12CC[C@H]3[C@@H](CC=C4C[C@@H](O)CC[C@@]43C)[C@@H]1CC[C@H]2O` [αAED, 5-androstene 3β,17α diol], the “proliferation of RAW 264.7 cells” value in the data set with RAW 264.7 (50 ηM) and in the data set with RAW 264.7 (100 ηM) was “significant inhibition of proliferation” throughout. The “cytotoxicity (cell count and viability)” value in the data set on ZR-75-1 cells [1] is “not toxic to the cells”. The figures for the “cell proliferation in combination with RU486” value in the data set with ZR-75-1 cells [2] (0.1 μl concentrations of αAED with 0.5 μM RU486) and with ZR-75-1 cells [2] (αAED with RU486 at 1 μM) were “synergistic action to decrease proliferation of cells” and “synergism was shown to be even greater”, respectively. Besides, the entries for the “cell proliferation (3H-thymidine)” value in the data set on ZR-75-1 cells [2] (6.25 ηM), in the data set with ZR-75-1 cells [2] (12.5 ηM) and in the data set on ZR-75-1 cells [2] (50 ηM) were “increasing proliferation”, “decreasing cell proliferation” and “marked decrease”, respectively. Further, the IC50 with ZR-75-1 cells [2] (Homo sapiens, ZR-75-1, read-out: half-maximal dose of anti-proliferative effect) was 50 nM. The “maximal dose of anti-proliferative effect” value with ZR-75-1 cells [2] (ZR-75-1 cells, dose and time-dependent) is given as 100 ηM. Moreover, the “cell proliferation in the presence of estradiol” value in the data set on ZR-75-1 cells [2] (higher doses of αAED, 1 ηM estradiol, 6 day period) is given as “suppressed proliferation even in the presence of estradiol”. Further, the “concentration at which growth of ZR-75-1 cells was significantly inhibited” value with ZR-75-1 cells [2] (tritiated thymidine incorporation, in vitro) is given as ≥ 12.5 ηM. In addition, in the data set on ZR-75-1 cells [2] (varied αAED, βAED constant at 2.5 ηM, six days), the “cell proliferation in the presence of βAED” value was “decreased proliferation at all concentrations”. In the data set with P388D1 cells, the “effect on growth of P388D1 cells in combination with RU486” value is recorded as “increased effectiveness over use of one agent”.

As to `C[C@]12CC[C@H]3[C@@H](CC=C4C[C@@H](O)CC[C@@]43C)[C@@H]1CC[C@@H]2O` [βAED, 5-androstene 3β,17β diol, reference compound], the “antiproliferative effect on growth of ZR-75-1 cells” value in the data set on ZR-75-1 cells [2] (alone at 100 ηM) is given as “did not have any antiproliferative effect”.

The record behind these values is US6977251B2, “5-androstene-3β, 17α diol as an inhibitor of tumor growth” (priority 1997, dated 2005).
